One data set concerns corn pollen. Kind of data set: Pollen toxicity: germination of corn pollen after incubation in pollen storage solutions. Format: cell-based, corn (Zea mays). The following applies: 1.0M sucrose, 10 mM MES, 0.5M, 1.0M or 1.5M cryoprotectant; 15 minutes at room temperature or 4° C.; germination plates; FIG. 1.
Data set [1] concerns pollen. Particulars: not told.
Description: (§1) As used herein the term “impermeable” refers to a state where an isotonic solution of the solute when first mixed with pollen produces less than about 10% pollen lysis over the first 4 hours that the pollen is in contact with the solution. As used herein the term “permeable” refers to a state where an isotonic solution of the cryoprotectant when first mixed with pollen produces greater than 50% pollen lysis over the first 4 hours that the pollen is in contact with the solution.
(§2) The pollen permeability of numerous cryoprotectants was evaluated to initially identify suitable candidates for use in the pollen storage solution. Suitable cryoprotectants will be permeable to the pollen in the solution. Suitable solutes will maintain the tonicity of the pollen storage solution at a concentration between about 0.5M and about 3.0M. […] Pollen storage solutions comprising 1.0M sucrose, 10 mM MES, and 0.5M, 1.0M, or 1.5M of cryoprotectant were evaluated for pollen toxicity.
Data set [2] deals with pollen. Kind of data set: Pollen permeability of cryoprotectants. Particulars: permeability test of cryoprotectants.
Description: as §1, §2

Like-named read-outs stand apart in the source and are kept apart here.

Description for corn pollen: Pollen storage solutions comprising 1.0M sucrose, 10 mM MES, and 0.5M, 1.0M, or 1.5M of cryoprotectant were evaluated for pollen toxicity. Briefly, corn pollen was suspended in each pollen storage solution at either room temperature or 4° C. and incubated for 15 minutes. The pollen storage solutions were applied to standard germination plates using an airbrush and images of the plates were obtained to evaluate germination. A 1.0M solution of sucrose was used as the positive control.

With `C[S+](C)[O-]` [DMSO, dimethyl sulfoxide], the germination rates result in the data set with corn pollen is “highest germination rates”. In addition, the “pollen permeability of cryoprotectant” value in the data set on pollen [1] is “among the most permeable”.

Consider `OCCO` [ethylene glycol], for which the germination rates result in the data set on corn pollen is on record as “highest germination rates”. Also, the “pollen permeability of cryoprotectant” value in the data set with pollen [2] was “among the most permeable”.

The record behind these values is patent US11910794B2, “Solutions and methods for long-term pollen storage” (Monsanto Technology LLC, priority 2021, dated 2024).
